# “Also recorded” adds a separate entry of the source.
# Experiments:
# HMG CoA reductase = experiment: Enzymatic activity of HMG CoA reductase in hepatic microsomes after GH infusion; assay type: in vivo, mice; conditions: for increase of HMG CoA reductase activity: GH 1 mg/kg/day, six days, hepatic microsomes
# From the text: (§1) The studies were approved by the Institutional Animal Care and Use Committee, Sweden. Altogether 75 male LDLRKO and 45 C57 BL/6J mice were purchased from Bommice, Denmark. Animals were housed under standardized conditions in groups of ten. The mice had free access to water and chow; the light cycle hours were between 6 a.m. and 6:00 p.m. At the start of the experiment, osmotic mini pumps containing GH were implanted subcutaneously under light ether anesthesia. Non-GH treated animals were sham-operated. Recombinant human GH (Genotropin®), purchased from Pharmacia & Upjohn, was infused at a rate of 1.0 mg/kg per day. After six days of infusion, animals where anesthetized with ether, and blood was collected from the eye. The mice where thereafter killed by cervical dislocation. The livers were immediately removed and when indicated, 1 g of liver was taken for subsequent preparation of microsomes for assay of enzyme activity as described below. The remaining liver was immediately frozen in liquid nitrogen and stored at −70° C.
# (§2) Hepatic microsomes were prepared by differential ultracentrifugation of liver homogenates in the absence of fluoride as previously described (Angelin et al 1984, J Lipid Res. 25; 1159-1166, Einarsson et al. 1986, J. Lipid Res. 27; 82-88, Einarsson et al. 1989, J. Lipid Res. 30; 739-746). Microsomal HMG CoA reductase was assayed from the conversion of [^14C] HMG CoA to mevalonate, and expressed as picomoles formed per mg protein per min. The activity of C7αOH was determined from the formation of 7α-hydroxycholesterol (picomoles/mg protein/min) from endogenous microsomal cholesterol by the use of isotope dilution-mass spectrometry as described in detail. All enzyme assays were carried out in duplicate.
# (§3) The means and standard error of means from three separate pools of all animals are shown.
# [1] = test system: cholesterol 7α hydroxylase (C7αOH); experiment: Enzymatic activity of C7αOH in hepatic microsomes after GH infusion; assay type: in vivo, mice; conditions: for increase of C7αOH activity: GH 1 mg/kg/day, six days, hepatic microsomes
# From the text: as §1, §2, §3
# HMG CoA reductase mRNA = HMG CoA reductase mRNA levels by solution hybridization after GH infusion; assay type: in vivo, mice; conditions: liver
# Protocol: (§4) Total nucleic acids were extracted from a sample of liver from each individual and incubated with the respective complementary radio-labeled cRNA probe.
# LDLRKO mice [2] = experiment: Cholestyramine, atorvastatin and GH alone and in combination: plasma cholesterol and triglycerides; assay type: in vivo; conditions: 6 days of treatment
# LDL receptors = experiment: Ligand blot assay of hepatic LDL-receptors after GH treatment; assay type: in vivo; conditions: C57BL/6J mice, pooled livers
# Protocol: Ligand blot assay of LDL-receptors was performed using ^125I-labeled rabbit β-migrating very low density lipoprotein (VLDL), as described previously (Rudling et al 1992. PNAS 89; 6983-6987). Membrane proteins were separated by SDS-PAGE (6% poly-acrylamide). After electrotransfer of proteins to nitrocellulose filters and subsequent incubation ^125I-β-VLDL filters were exposed onto DuPont X-ray film at −70° C.
# The absence of LDL receptors in LDLRKO animals was confirmed by ligand blot of hepatic membranes obtained from pooled livers from each animal group, using β-VLDL as ligand (not shown). The expression of LDL receptors in C57BL/6J mice was not altered by GH treatment.
# C57BL/6J mice [3] = experiment: FPLC size-fractionation of plasma lipoproteins after GH infusion; assay type: in vivo; conditions: pooled plasma, first experiment
# Protocol: (§5) Equal volumes of plasma from each animal were pooled (1-2 mL) and the density was adjusted to 1.21 g/mL with solid KBr. After ultracentrifugation at 10^5 g for 48 h, the supernatant was removed and adjusted with 0.15 M NaCl, 0.01% etylene diamine tetraacetic acid, (EDTA), 0.02% sodium azide, pH 7.3. An aliquot of this solution was injected on a 54×1.8 cm superose 6B column after filtration through a Millipore […] HA filter, 2-mL fractions were collected.
# (§6) FIGS. 2 and 3 show the lipoprotein patterns in the four groups of animals described in legend to FIG. 1. Equal volumes of plasma from each animal were pooled and subjected to ultracentrifugation at density 1.21. The supernatant was thereafter separated on a Superose 6 column and fractionated.
# LDLRKO mice [4] = experiment: as above; assay type: in vivo
# Protocol: as §5, §6
# C7αOH mRNA = C7αOH mRNA levels by solution hybridization after GH infusion; assay type: in vivo, mice; conditions: GH treatment, liver
# Protocol: as §4
# C57BL/6J mice [5] = experiment: GH infusion for six days: total plasma cholesterol, triglycerides and total hepatic cholesterol; assay type: in vivo; conditions: GH 1 mg/kg/d infusion
# From the text: as §1
# (§7) The total hepatic cholesterol was determined, following extraction and subsequent drying under nitrogen from liver samples, as described (Rudling M. J. Lipid Res. 33: 493-50 1992). Total hepatic and plasma cholesterol and plasma triglycerides were assayed using commercial available methods (Boehringer-Mannheim, Mannheim, Germany).
# (§8) Infusion of GH to C57BL/6J and LDLRKO mice. Two sets of ten animals of each strain were continuously infused at a rate of 1 mg/kg/d. After six days of treatment, animals were killed and plasma and livers were collected.
# (§9) To confirm this surprising finding of a plasma cholesterol lowering effect of GH in LDLR deficient animals with pronounced hypercholesterolemia, the previous experiment was repeated. In addition, we wanted to also determine the enzymatic activities of 3-hydroxy-3-methyl-glutaryl coenzyme A, (HMG CoA) reductase, and cholesterol 7α hydroxylase, (C7αOH), being the rate limiting steps in the synthesis of cholesterol and bile acids, respectively. Animals received the same dose of GH that was infused for six days.
# (§10) FIG. 1 is a graph that depicts total plasma cholesterol, triglycerides and total hepatic cholesterol in normal (C57 BL) and LDLRKO (KO) mice±GH (1 mg/kg/day) for 6 days. Each group consisted of 10 animals. Bars indicate SEM.
# (§11) Each group consisted of 10 animals. Bars indicate SEM.
# LDLRKO mice [6] = experiment: as above; assay type: in vivo
# From the text: as §1, §7, §8, §9, §10, §11
# [7] = LDLRKO mice, GH 1 mg/kg/d infusion, six days
# [8] = repeated experiment, same GH dose, six days (FIG. 4)
substance,measurement,setting,value
"GH: Recombinant human GH (Genotropin), purchased from Pharmacia & Upjohn, infused at 1.0 mg/kg per day",increase of HMG CoA reductase activity,HMG CoA reductase; C57/BL6J mice,53%
same,increase of HMG CoA reductase activity,HMG CoA reductase; LDLRKO mice,113%
same,enzymatic activity of HMG CoA reductase (in words),"HMG CoA reductase; LDLRKO mice, GH infusion",increased the activity to the same level as found in normal C57BL/6J animals; also recorded: normalized
same,increase of C7αOH activity,[1]; C57/BL6J mice,115%
same,increase of C7αOH activity,[1]; LDLRKO mice,46%
same,enzymatic activity of C7αOH (in words),"[1]; LDLRKO mice, GH infusion",stimulated; also recorded: normalized
same,enzymatic activity of C7αOH (in words),"[1]; normal mice, GH treatment",stimulated
same,HMG CoA reductase mRNA levels,HMG CoA reductase mRNA; C57/BL6J mice,no effect
same,increase of HMG CoA reductase mRNA levels,HMG CoA reductase mRNA; LDLRKO mice,20%
same,reduction of plasma cholesterol,LDLRKO mice [2]; groups of 5,10%
same,reduction of plasma triglycerides,LDLRKO mice [2]; groups of 5,approx. 20%
same,expression of LDL receptors (ligand blot of hepatic membranes),LDL receptors,not altered
same,lipoprotein triglycerides by FPLC size fraction,C57BL/6J mice [3],increased triglycerides within VLDL particles
same,reduction of lipoprotein cholesterol by FPLC size fraction,"LDLRKO mice [4]; LDLRKO mice, pooled plasma, first experiment (FIG. 2)",within all size fractions
same,reduction in lipoprotein triglycerides by FPLC size fraction,"LDLRKO mice [4]; LDLRKO mice, pooled plasma, first experiment (FIG. 3)",only within VLDL particles
same,plasma lipoprotein cholesterol by FPLC,LDLRKO mice [4]; repeated experiment (FIG. 5),"lowered plasma lipoprotein cholesterol, particularly within VLDL and LDL particles"
same,lipoprotein triglycerides by FPLC,LDLRKO mice [4]; repeated experiment (FIG. 6),not only reduced among VLDL particles but also within LDL and HDL particles
same,reduction in C7αOH mRNA level,C7αOH mRNA; C57/BL6J mice,50%
same,increase of C7αOH mRNA level,C7αOH mRNA; LDLRKO mice,170%
same,total plasma cholesterol,C57BL/6J mice [5]; C57BL/6J (normal) mice,no significant effect; also recorded: no reduction
same,total plasma triglycerides,C57BL/6J mice [5]; C57BL/6J mice,unaltered
same,total hepatic cholesterol,C57BL/6J mice [5]; normal C57BL/6J mice,slightly increased
same,reduced plasma cholesterol level,"LDLRKO mice [6]; LDL-receptor knockout mice, GH infusion",30-40%
same,total hepatic cholesterol,LDLRKO mice [6]; [7],slight reduction
same,total plasma triglycerides,LDLRKO mice [6]; [7],slight but not significant reduction
same,total plasma cholesterol,"LDLRKO mice [6]; LDLRKO mice, GH 1 mg/kg/d infusion, six days, first experiment",clearly reduced
same,reduction of total plasma cholesterol versus first experiment,LDLRKO mice [6]; [8],slightly less pronounced
same,"total plasma cholesterol and triglycerides, and total hepatic cholesterol versus first experiment",LDLRKO mice [6]; [8],practically identical results
cholestyramine [reference compound],effect on plasma cholesterol (in words),LDLRKO mice [2]; drug alone,no effects

# Reference: US6559289B1, “Use of growth hormone or analogues thereof for the treatment of mammals with familial hypercholesterolemia” (Salhtech I Goteborg AB, priority 1998, dated 2003)
